Source: publication PMC3914206

What was measured:
Type in all cases: binding
[1] = biological target: T1, panel of 442 kinases (Homo sapiens, UniProt O00506); conditions: kinase YSK1; compound concentration 10 µM
T1 construct: purchased KINOMEscan
Text: (§1) We assessed the selectivity of members of this scaffold using the KINOMEscan methodology across a near comprehensive panel of 442 kinases [[18,27]].

[2] = biological target: T2, panel of 442 kinases (Homo sapiens, UniProt P07333); conditions: Compound Concentration 10 µM
T2 construct: purchased KINOMEscan
Text: as §1

[3] = biological target: T3, panel of 442 kinases (Homo sapiens, UniProt P08581, Y1235D); conditions: Compound Concentration 10 µM
T3 construct: purchased KINOMEscan
Text: as §1

[4] = biological target: T4, panel of 442 kinases (Homo sapiens, UniProt Q9H0K1); conditions: kinase SIK2; compound concentration 10 µM
T4 construct: purchased KINOMEscan
Text: as §1

T3 sequence (P08581 25-1390 Y1235D): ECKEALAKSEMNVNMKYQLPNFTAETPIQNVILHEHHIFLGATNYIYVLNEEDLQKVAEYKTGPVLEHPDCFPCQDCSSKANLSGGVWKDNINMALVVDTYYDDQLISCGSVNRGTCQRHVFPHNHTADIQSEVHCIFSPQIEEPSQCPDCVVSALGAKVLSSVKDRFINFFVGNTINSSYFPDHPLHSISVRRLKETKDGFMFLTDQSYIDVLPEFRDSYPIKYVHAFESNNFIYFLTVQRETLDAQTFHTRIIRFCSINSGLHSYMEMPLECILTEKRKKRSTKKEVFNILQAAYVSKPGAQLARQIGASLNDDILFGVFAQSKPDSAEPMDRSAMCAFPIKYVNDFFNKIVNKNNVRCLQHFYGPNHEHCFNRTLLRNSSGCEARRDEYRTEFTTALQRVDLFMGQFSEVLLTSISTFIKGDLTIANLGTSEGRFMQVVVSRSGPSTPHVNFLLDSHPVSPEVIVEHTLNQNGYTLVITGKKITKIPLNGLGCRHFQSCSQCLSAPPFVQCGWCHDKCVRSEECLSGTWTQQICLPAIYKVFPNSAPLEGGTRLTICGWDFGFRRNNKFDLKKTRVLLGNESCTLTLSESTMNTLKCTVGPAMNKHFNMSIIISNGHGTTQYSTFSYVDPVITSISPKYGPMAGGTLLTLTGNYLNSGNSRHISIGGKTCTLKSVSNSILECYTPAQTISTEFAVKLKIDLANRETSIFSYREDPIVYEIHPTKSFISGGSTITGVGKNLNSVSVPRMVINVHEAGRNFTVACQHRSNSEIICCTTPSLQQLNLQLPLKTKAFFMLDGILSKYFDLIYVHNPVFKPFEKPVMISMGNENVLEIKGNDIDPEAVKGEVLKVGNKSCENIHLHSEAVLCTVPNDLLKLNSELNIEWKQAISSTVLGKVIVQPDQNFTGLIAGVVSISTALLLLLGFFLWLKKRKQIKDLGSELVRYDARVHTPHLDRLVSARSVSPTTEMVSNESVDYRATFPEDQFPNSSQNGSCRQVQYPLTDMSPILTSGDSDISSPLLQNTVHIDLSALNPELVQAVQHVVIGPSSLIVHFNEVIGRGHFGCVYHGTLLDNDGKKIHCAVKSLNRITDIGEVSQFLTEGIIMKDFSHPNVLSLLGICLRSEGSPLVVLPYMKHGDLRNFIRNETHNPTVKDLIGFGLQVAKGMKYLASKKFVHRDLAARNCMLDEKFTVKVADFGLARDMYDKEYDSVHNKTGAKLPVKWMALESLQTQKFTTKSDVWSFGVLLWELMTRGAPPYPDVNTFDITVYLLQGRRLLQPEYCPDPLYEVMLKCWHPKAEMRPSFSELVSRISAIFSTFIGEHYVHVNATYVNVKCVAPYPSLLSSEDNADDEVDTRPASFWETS
T1 sequence (O00506 whole entry): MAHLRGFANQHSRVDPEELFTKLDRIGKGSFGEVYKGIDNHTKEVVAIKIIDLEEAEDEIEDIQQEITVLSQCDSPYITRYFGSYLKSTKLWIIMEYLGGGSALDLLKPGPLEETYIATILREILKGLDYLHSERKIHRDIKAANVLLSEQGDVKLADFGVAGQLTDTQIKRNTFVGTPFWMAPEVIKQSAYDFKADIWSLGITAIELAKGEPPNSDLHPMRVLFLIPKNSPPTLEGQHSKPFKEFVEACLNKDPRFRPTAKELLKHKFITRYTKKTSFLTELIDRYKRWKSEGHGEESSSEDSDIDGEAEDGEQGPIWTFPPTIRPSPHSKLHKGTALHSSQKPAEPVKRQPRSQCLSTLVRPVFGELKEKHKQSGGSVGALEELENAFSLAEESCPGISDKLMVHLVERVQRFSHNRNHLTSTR
T2 sequence (P07333 20-972): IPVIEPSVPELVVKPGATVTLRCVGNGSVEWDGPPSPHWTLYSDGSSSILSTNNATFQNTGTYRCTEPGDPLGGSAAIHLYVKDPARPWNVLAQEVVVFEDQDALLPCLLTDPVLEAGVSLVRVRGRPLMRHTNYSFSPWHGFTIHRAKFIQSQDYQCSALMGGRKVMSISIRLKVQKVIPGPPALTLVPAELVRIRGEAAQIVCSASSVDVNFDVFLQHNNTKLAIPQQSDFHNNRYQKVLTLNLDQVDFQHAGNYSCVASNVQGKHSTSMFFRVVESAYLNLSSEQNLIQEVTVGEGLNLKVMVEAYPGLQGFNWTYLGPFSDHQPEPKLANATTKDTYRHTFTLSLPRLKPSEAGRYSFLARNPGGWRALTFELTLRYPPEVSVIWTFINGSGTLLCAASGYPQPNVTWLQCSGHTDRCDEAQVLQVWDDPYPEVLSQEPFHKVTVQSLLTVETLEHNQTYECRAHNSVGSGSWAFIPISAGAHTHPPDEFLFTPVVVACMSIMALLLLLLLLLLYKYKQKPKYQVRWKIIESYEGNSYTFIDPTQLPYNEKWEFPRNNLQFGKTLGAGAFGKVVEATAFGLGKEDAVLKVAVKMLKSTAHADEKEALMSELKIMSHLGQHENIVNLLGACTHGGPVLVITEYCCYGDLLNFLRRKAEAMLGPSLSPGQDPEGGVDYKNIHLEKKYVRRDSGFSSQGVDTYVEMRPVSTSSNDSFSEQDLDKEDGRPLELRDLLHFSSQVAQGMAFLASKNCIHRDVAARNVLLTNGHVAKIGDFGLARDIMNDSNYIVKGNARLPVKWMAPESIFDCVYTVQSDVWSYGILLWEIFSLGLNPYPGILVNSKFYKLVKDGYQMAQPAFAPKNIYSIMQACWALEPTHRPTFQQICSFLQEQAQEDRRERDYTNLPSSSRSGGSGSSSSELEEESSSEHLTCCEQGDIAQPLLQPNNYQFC
T4 sequence (Q9H0K1 whole entry): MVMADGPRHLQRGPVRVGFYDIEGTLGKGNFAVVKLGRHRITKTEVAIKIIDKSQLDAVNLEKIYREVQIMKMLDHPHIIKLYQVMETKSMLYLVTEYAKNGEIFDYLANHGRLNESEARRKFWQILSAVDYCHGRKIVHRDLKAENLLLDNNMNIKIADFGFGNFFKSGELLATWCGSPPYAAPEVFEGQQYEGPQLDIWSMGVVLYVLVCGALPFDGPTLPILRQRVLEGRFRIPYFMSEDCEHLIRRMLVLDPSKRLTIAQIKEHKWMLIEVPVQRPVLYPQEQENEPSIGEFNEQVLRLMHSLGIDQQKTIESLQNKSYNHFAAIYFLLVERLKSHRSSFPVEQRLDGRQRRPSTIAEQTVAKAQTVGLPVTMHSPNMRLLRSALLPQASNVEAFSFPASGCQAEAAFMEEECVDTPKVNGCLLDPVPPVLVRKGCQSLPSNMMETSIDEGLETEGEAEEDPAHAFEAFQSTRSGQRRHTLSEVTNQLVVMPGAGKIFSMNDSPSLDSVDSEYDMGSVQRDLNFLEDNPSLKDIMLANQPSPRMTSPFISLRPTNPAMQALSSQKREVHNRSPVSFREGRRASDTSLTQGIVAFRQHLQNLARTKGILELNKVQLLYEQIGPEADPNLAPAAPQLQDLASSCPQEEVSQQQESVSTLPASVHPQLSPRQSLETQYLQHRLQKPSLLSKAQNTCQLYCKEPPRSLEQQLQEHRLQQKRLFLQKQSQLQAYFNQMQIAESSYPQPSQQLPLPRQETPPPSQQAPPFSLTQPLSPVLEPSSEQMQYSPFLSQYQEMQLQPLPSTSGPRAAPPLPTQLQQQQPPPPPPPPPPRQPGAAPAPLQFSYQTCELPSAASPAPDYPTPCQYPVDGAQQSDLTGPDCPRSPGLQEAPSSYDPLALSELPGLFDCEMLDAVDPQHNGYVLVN

SMILES: CCOc1cc(C(=O)N2CCC(N3CCN(C)CC3)CC2)ccc1Nc1ncc2c(n1)N(C1CCCC1)c1ccccc1C(=O)N2C [Compound 26]
- % Ctrl, YSK1 [1]: 90 % Ctrl
- KINOMEscan: CSF1R [2]: 100
- KINOMEscan: MET(Y1235D) [3]: 100
- % Ctrl, SIK2 [4]: 100 % Ctrl

SMILES: COc1cc(C(=O)N2CCC(N3CCN(C)CC3)CC2)ccc1Nc1ncc2c(n1)N(C1CCCC1)c1ccccc1C(=O)N2C [Compound 25, 11-cyclopentyl-2-((2-methoxy-4-(4-(4-methylpiperazin-1-yl)piperidine-1-carbonyl)phenyl)amino)-5-methyl-5H-benzo[e]pyrimido[5,4-b][1,4]diazepin-6(11H)-one]
- % Ctrl, YSK1 [1]: 66 % Ctrl
- KINOMEscan: CSF1R [2]: 56
- KINOMEscan: MET(Y1235D) [3]: 100
- % Ctrl, SIK2 [4]: 95 % Ctrl

SMILES: COc1cc(C(=O)N2CCC(N3CCN(C)CC3)CC2)ccc1Nc1ncc2c(n1)N1CCc3cccc(c31)C(=O)N2C [Compound 24]
- % Ctrl, YSK1 [1]: 60 % Ctrl
- KINOMEscan: CSF1R [2]: 57
- KINOMEscan: MET(Y1235D) [3]: 74
- % Ctrl, SIK2 [4]: 81 % Ctrl

SMILES: COc1cc(C(=O)N2CCC(N3CCN(C)CC3)CC2)ccc1Nc1ncc2c(n1)N(C)c1ccccc1C(=O)N2C [15 (LRRK2-IN-1)]
- % Ctrl, YSK1 [1]: 68 % Ctrl
- KINOMEscan: CSF1R [2]: 98
- KINOMEscan: MET(Y1235D) [3]: 100
- % Ctrl, SIK2 [4]: 98 % Ctrl
